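Grown in 96-well plates, cells were treated for 48 hours with each compound at five concentrations. Insufficient inhibition: endpoint recorded as highest concentration tested. GI50: concentration for 50% inhibition of growth. The concentration for full growth arrest is given as TGI.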
Experiments:
Test in all cases: DTP human tumour cell line panel, 48 h
[1] = test system: A549 NSCLC
[2] = test system: SNB-75 CNS
[3] = test system: OVCAR-3 ovarian
[4] = test system: SNB-19 CNS
[5] = test system: RXF 393 renal
[6] = test system: UO-31 renal
[7] = test system: SR leukemia
[8] = test system: CCRF-CEM leukemia
[9] = test system: HCT-15 colon
[10] = test system: CAKI-1 renal

| SMILES | GI50 [1] [µM] | TGI [1] [µM] | GI50 [2] [µM] | TGI [2] [µM] | GI50 [3] [µM] | TGI [3] [µM] | GI50 [4] [µM] | TGI [4] [µM] | GI50 [5] [µM] | TGI [5] [µM] | GI50 [6] [µM] | TGI [6] [µM] | GI50 [7] [µM] | TGI [7] [µM] | GI50 [8] [µM] | TGI [8] [µM] | GI50 [9] [µM] | TGI [9] [µM] | GI50 [10] [µM] | TGI [10] [µM] |
| --- | --- | --- | --- | --- | --- | --- | --- | --- | --- | --- | --- | --- | --- | --- | --- | --- | --- | --- | --- | --- |
| C(=N\Nc1nnn(Cc2ccccc2)n1)/c1ccccc1 | 4.7 | > 100 | 3.67 | 36.8 | 2.26 | 7.95 | 9.95 | 64.8 | 2.58 | 20.2 | 9.68 | > 100 | 0.301 | 2.21 | 1.71 | > 47.5 | 1.42 | > 100 | 2.57 | > 100 |
| O=C(/C=C/c1ccccc1)c1ccc(NCc2nc3ccccc3[nH]2)cc1 |  | 17.4 |  | 20.9 |  | 9.57 |  | 15.9 |  | 16.8 |  | 20.2 |  | > 35.3 |  | 8.38 |  | 15.9 |  | 25.2 |
| CCN(C(=O)/C=C/c1ccco1)c1ccccc1 |  | > 100 |  | > 100 |  | > 100 |  | > 100 |  | > 100 |  | > 100 |  | > 100 |  | > 100 |  | > 100 |  | > 100 |
| CN(C)C(=S)/N=c1\ssc(=S)n1Cc1ccncc1 |  | > 100 |  | 58.5 |  | 32.9 |  | > 100 |  | 70 |  | 88.5 |  | 45.4 |  | 57 |  | 55.1 |  | 75.6 |
| C/C(=N/NC(=O)C[N+](C)(C)C)C(CN(C)C)C(=O)Nc1ccccc1 (stereo not given) |  | > 100 |  | > 100 |  | > 100 |  | > 100 |  | > 100 |  | > 100 |  | > 100 |  | > 100 |  | > 100 |  | > 100 |
| Cc1ccccc1C(=O)N1CCN(C(=O)c2ccccc2C)CC1 |  | > 100 |  | > 100 |  | > 100 |  | > 100 |  | > 100 |  | > 100 |  | > 100 |  | > 100 |  | > 100 |  | > 100 |
| CC(C)(C)OC(=O)NCCCCCCCn1c2c(c3ccccc3c1=O)C(=O)c1ccccc1-2 | 31.8 | > 100 | 21.5 | 49.7 | 34.3 | > 100 | 32.5 | > 100 | 16.2 | 43.5 | 25.6 | > 100 | 4.95 | > 100 | 76.1 | > 100 | 41.7 | > 100 | 32.2 | 73 |
| CC(NC(=O)N(C)C)NC(=O)N(C)C |  | > 10 |  | > 10 |  | > 10 |  | > 10 |  | > 10 |  | > 10 |  | > 10 |  | > 10 |  | > 10 |  | > 10 |
| CCOC(=O)/C(C#N)=C\C=C(/Cl)c1ccc(Cl)cc1 | 30.4 | 90.4 | 20.5 | 39.9 | 7.76 | 28.4 | 19.1 | 46.4 | 21.6 | 45.9 | 18 | 35.4 | 4.78 | > 100 | 0.484 | > 100 | 15.1 | 33.6 | 5.74 | 22.5 |

Source: PubChem BioAssay (NCI)
